The target of assay [1] is Phosphodiesterase III (PDE III). Briefly: Phosphodiesterase III Inhibition. In kind it is biochemical, mongrel dogs (thoracic aorta). As to conditions: dog thoracic aorta PDE III; substrate concentration 1 μM; triplicate. As to the method:
Procedure 1 --Phosphodiesterase III Inhibition
Phosphodiesterase III (PDE III) was obtained by a slight modification of the methods of Thompson et al. [Advances in Cyclic Nucleotide Research vol. […] Thoracic aorta from mongrel dogs was minced with fine scissors and homogenized in 10 volumes of a buffer containing 10 mM tris acetate, pH 7.5, 2 mM magnesium chloride, 1mM dithiothreitol and 2000 units per mL of aprotinin. This and subsequent procedures were performed at 0-4°. The tissue was homogenized, the homogenate was sonicated and the resultant homogenate was centrifuged at 48,000 g for 30 minutes. The resulting supernatant fraction was applied to a diethylaminoethyl ether (DEAE) cellulose column that had been equilibrated with 35 or 70 mM sodium acetate containing 1 mM dithiothreitol at pH 6.5. After application of the sample, the column was washed with 2-3 bed volumes of the equilibration buffer and the PDE isozyme was eluted from the column using a continuous sodium acetate gradient to 1 molar. Fractions of approximately 5 mL were collected and assayed for cAMP and cGMP PDE activity at substrate concentrations of 1 μM. Appropriate fractions corresponding to peak three were pooled and dialyzed against 70 mM sodium acetate, 0.5 mM dithiothreitol for at least 20 hours.

Assay [2] has as its system mean arterial pressure. Briefly: In vivo Vasodilation in the Rat. Conditions: 0.4 mg/kg, orally by gavage. Also on record: species or system normotensive male Sprague-Dawley rats. As to the method: Procedure 2--In vivo Vasodilation in the Rat
Normotensive male Sprague-Dawley rats of 325-425 g were anesthetized with sodium pentobarbital and an arterial catheter was placed in the abdominal aorta via the femoral artery. The catheter was tunneled subcutaneously, exteriorized at the nape of the neck, filled with heparinized saline and sealed with a stainless steel plug. The wounds were sutured and a suspension of penicillin G benzathine and penicillin G procaine was administered subcutaneously. All animals were allowed at least two days recovery prior to testing.
Rats were fasted 17 hours then placed into individual plexiglass boxes. The arterial catheter was connected to a Statham pressure transducer, positioned at the heart level, and the arterial pressure signal was recorded on a polygraph. The animals remained undisturbed for at least one hour to adapt to the testing environment. After the adaptation period, three baseline arterial pressure and heart rate measurements were taken at 15-minute intervals prior to the administration of the test drug. […] Arterial pressure and heart rate were measured at 15-minute intervals for the first hour and 30-minute intervals for the next four hours following the administration of drugs.
The data were analyzed by one-way analysis of variance for repeated measures. […]

The structures appear in SMILES notation. pIC50: −log10 of the molar value.

As usually defined, the pIC50 is the negative decadic logarithm of the IC50, by convention in mol/L. `Cc1[nH]c(=O)c(C#N)cc1-c1ccc2ncccc2c1` [Example 3, 1,2-Dihydro-6-methyl-2-oxo-5-(6-quinolinyl)-3-pyridinecarbonitrile] gave a pIC50 in assay [1] of 7.24. Also, the “area under the curve for reduction of mean arterial pressure” value in assay [2] (conscious normotensive rats) is listed as 75%. For the same compound, the “statistical significance of reduction of mean arterial pressure” value in assay [2] (Student Newman-Keuls test, probability of less than 5%, to the end of the test at six hours) is “statistical significance at all times to the end of the test at six hours”.

Compound `Cc1[nH]c(=O)c(C#N)cc1-c1ccncc1` [milrinone, reference compound] showed a pIC50 in assay [1] of 6.30.

These data come from patent publication US5141931A, “5-Quinolinylpyridinones, cardiotonic compositions and methods” (Sterling Winthrop Inc., priority 1991, dated 1992).
